Test results published in ChEMBL document CHEMBL1201862, “PubChem BioAssay data set” (2004).
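Tested at 5 concentrations; 48 h exposure; 96-well plates; endpoints linearly interpolated, else capped at highest concentration. At the GI50, growth is halved.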 Active and inactive are the calls of the source. No stated cut-off is given here; in the data, active = GI50 up to about 1.1 µM and inactive = higher.

Experiments:
Test in all cases: growth of human tumour cells (NCI), 48 h
[1] = system: HT-29
[2] = system: NCI-H226
[3] = system: HL-60
[4] = system: MDA-N
[5] = system: SK-MEL-5
[6] = system: T47D
[7] = system: PC-3
[8] = system: Malme-3M
[9] = system: ACHN
[10] = system: HOP-62
[11] = system: OVCAR-5
[12] = system: SF-268
[13] = system: TK-10
[14] = system: OVCAR-4
[15] = system: 786-0
[16] = system: SF-295
[17] = system: HOP-92
[18] = system: U-251
[19] = system: K562

Row | SMILES | GI50 [1] | GI50 [2] | GI50 [3] | GI50 [4] | GI50 [5] | GI50 [6] | GI50 [7] | GI50 [8] | GI50 [9] | GI50 [10] | GI50 [11] | GI50 [12] | GI50 [13] | GI50 [14] | GI50 [15] | GI50 [16] | GI50 [17] | GI50 [18] | GI50 [19]
1 | C/C=C1/CN2CCC34c5ccccc5N5C(=O)C(C6CC78c9ccccc9N9C(=O)C=CC(C%10CC7N6C/C%10=C/C)C98)=CC(C1CC23)C54 (stereo not drawn) | 2.44 µM (inactive) | 7.13 µM (inactive) | 0.183 µM (active) | 5.47 µM (inactive) | 5.83 µM (inactive) | 11.1 µM (inactive) | 2.1 µM (inactive) | 7.82 µM (inactive) | 7 µM (inactive) | 8.59 µM (inactive) | 10.2 µM (inactive) | 6.89 µM (inactive) | 7.52 µM (inactive) | 7.01 µM (inactive) | 4.67 µM (inactive) | 9.2 µM (inactive) | 6.32 µM (inactive) | 5.92 µM (inactive) | 1.62 µM (inactive)
2 | CC(=O)/C=C1/C(=O)C(CC(C)C)=C1CC(C)C | > 100 µM (inactive) | > 100 µM (inactive) | > 100 µM (inactive) | > 100 µM (inactive) | > 100 µM (inactive) | > 100 µM (inactive) | > 100 µM (inactive) | > 100 µM (inactive) | > 100 µM (inactive) | > 100 µM (inactive) | > 100 µM (inactive) | > 100 µM (inactive) | > 100 µM (inactive) | > 100 µM (inactive) | > 100 µM (inactive) | > 100 µM (inactive) | > 100 µM (inactive) | > 100 µM (inactive) | 
3 | CCCNC(=O)c1cc(OC)c(OC)cc1NC(=O)C12CC3CC(CC(C3)C1)C2 | 18.2 µM (inactive) | 25.2 µM (inactive) | 32.7 µM (inactive) | 16.7 µM (inactive) | 40 µM (inactive) | 17.5 µM (inactive) | 17.3 µM (inactive) | 17.8 µM (inactive) | 14.5 µM (inactive) | 19.7 µM (inactive) | 20.2 µM (inactive) | 17.6 µM (inactive) | 16.6 µM (inactive) | 17.6 µM (inactive) | 17 µM (inactive) | 18.7 µM (inactive) | 18.3 µM (inactive) | 17 µM (inactive) | 31.9 µM (inactive)
4 | N#C/C(C(=O)Nc1ccc(Cl)cc1)=C(/N)N1CCCC1 |  | > 100 µM (inactive) | 0.635 µM (active) | > 100 µM (inactive) | > 100 µM (inactive) | > 100 µM (inactive) | > 100 µM (inactive) |  | > 100 µM (inactive) | > 100 µM (inactive) | > 100 µM (inactive) |  |  |  | > 100 µM (inactive) | > 100 µM (inactive) | > 100 µM (inactive) | > 100 µM (inactive) | > 100 µM (inactive)
5 | COc1cccc(-c2nc(-c3cnccn3)n(COCCO)n2)c1 | > 100 µM (inactive) |  | > 100 µM (inactive) | > 100 µM (inactive) | > 100 µM (inactive) | > 100 µM (inactive) | > 100 µM (inactive) |  |  | > 100 µM (inactive) | > 100 µM (inactive) | > 100 µM (inactive) | > 100 µM (inactive) | > 100 µM (inactive) | > 100 µM (inactive) | > 100 µM (inactive) | > 100 µM (inactive) | > 100 µM (inactive) | > 100 µM (inactive)
6 | O=C(OCC1CCCN2CCCCC12)c1cccnc1 (stereo not drawn) | > 100 µM (inactive) | > 100 µM (inactive) | > 100 µM (inactive) | > 100 µM (inactive) | > 100 µM (inactive) | > 100 µM (inactive) | > 100 µM (inactive) | > 100 µM (inactive) | > 100 µM (inactive) |  |  | > 100 µM (inactive) | > 100 µM (inactive) | > 100 µM (inactive) | > 100 µM (inactive) | > 100 µM (inactive) | > 100 µM (inactive) | > 100 µM (inactive) | > 100 µM (inactive)
7 | CC(C)Oc1c(O)c2c3c(oc(=O)n3C=CC2c2ccccc2)c1OC(C)C (stereo not drawn) | 24.2 µM (inactive) | 27.6 µM (inactive) | 27 µM (inactive) | 36.3 µM (inactive) | 32.3 µM (inactive) | 25.9 µM (inactive) | 17 µM (inactive) |  | > 10 µM (inactive) | 26.7 µM (inactive) | 34.4 µM (inactive) |  | 22.1 µM (inactive) | 24.6 µM (inactive) | 36.1 µM (inactive) | 20.8 µM (inactive) | 30.2 µM (inactive) | 20.8 µM (inactive) | 
8 | O=C(CSc1nc2ccc(I)cc2c(=O)n1Cc1ccccc1)NNC(=S)Nc1ccccc1 | 41.5 µM (inactive) | 6.53 µM (inactive) | 25.5 µM (inactive) | 30.3 µM (inactive) | 13.8 µM (inactive) | 23.5 µM (inactive) | 9.68 µM (inactive) |  | 18.9 µM (inactive) |  | > 100 µM (inactive) | 5.27 µM (inactive) | 61.8 µM (inactive) | 6.53 µM (inactive) | 7.4 µM (inactive) | 54 µM (inactive) | 11.8 µM (inactive) | 6.24 µM (inactive) | 11.3 µM (inactive)
9 | CC1=C(C(=O)N(C(C)C)C(C)C)CC(C(=O)N(C(C)C)C(C)C)=C(C)N1 | > 100 µM (inactive) | > 100 µM (inactive) | > 100 µM (inactive) | > 100 µM (inactive) | > 100 µM (inactive) | 49.3 µM (inactive) | 96.6 µM (inactive) |  | > 100 µM (inactive) | > 100 µM (inactive) | > 100 µM (inactive) | > 100 µM (inactive) | > 100 µM (inactive) | > 100 µM (inactive) | > 100 µM (inactive) | > 100 µM (inactive) | > 100 µM (inactive) | > 100 µM (inactive) | > 100 µM (inactive)
10 | NC(=O)/C=C/NC(=O)/C=N\O | > 100 µM (inactive) | > 100 µM (inactive) | > 100 µM (inactive) | > 100 µM (inactive) | > 100 µM (inactive) | > 100 µM (inactive) | > 100 µM (inactive) | > 100 µM (inactive) | > 100 µM (inactive) | > 100 µM (inactive) | > 100 µM (inactive) | > 100 µM (inactive) |  | > 100 µM (inactive) | > 100 µM (inactive) | > 100 µM (inactive) | > 100 µM (inactive) | > 100 µM (inactive) | > 100 µM (inactive)
11 | C/C(Cl)=N\OC(=O)Nc1ccc([N+](=O)[O-])cc1 | 9.71 µM (inactive) | > 100 µM (inactive) | 1.82 µM (inactive) | 10.8 µM (inactive) | 17.4 µM (inactive) | 9.48 µM (inactive) | 16.2 µM (inactive) | 3.01 µM (inactive) | 4.73 µM (inactive) | > 100 µM (inactive) | 16.4 µM (inactive) | 21 µM (inactive) | 14.7 µM (inactive) | 13.7 µM (inactive) | 5.92 µM (inactive) | 16.8 µM (inactive) | 2.59 µM (inactive) | 17.6 µM (inactive) | 2.02 µM (inactive)
12 | C[C@]12CC[C@H]3[C@@H](CC[C@]4(O)C[C@@H](O)CC[C@]34/C=N/O)[C@@]1(O)CC[C@@H]2C1=COC(=O)C1 | 0.146 µM (active) | 0.391 µM (active) | 0.131 µM (active) | 0.191 µM (active) | 0.0583 µM (active) | 0.317 µM (active) | 0.149 µM (active) | 0.169 µM (active) | 0.0404 µM (active) | 0.102 µM (active) | 0.318 µM (active) | 0.0728 µM (active) | 0.0845 µM (active) | 0.0608 µM (active) | 0.102 µM (active) | 0.0545 µM (active) | 0.2 µM (active) | 0.212 µM (active) | 0.12 µM (active)
13 | COC(=O)[C@]1(C)CCC[C@]2(C)[C@@H](CCC(=O)C(C)C)[C@]3(C=O)O[C@@H]3C[C@H]21 | 38.9 µM (inactive) | 60.1 µM (inactive) | 40.1 µM (inactive) | 23.6 µM (inactive) | 31.1 µM (inactive) | 21.8 µM (inactive) | 28.4 µM (inactive) | 53.1 µM (inactive) | 27 µM (inactive) |  | > 100 µM (inactive) | 44.1 µM (inactive) | 51.8 µM (inactive) | 24.7 µM (inactive) | 32.4 µM (inactive) | 36.1 µM (inactive) | 29.8 µM (inactive) | 33.7 µM (inactive) | 27.9 µM (inactive)
14 | Cc1c[nH]c2c(O)cc3c(c12)[C@H](CCl)CN3C(=O)c1cc2cc(NC(=O)Nc3ccc4[nH]c(C(=O)N5C[C@@H](CCl)c6c5cc(O)c5[nH]cc(C)c65)cc4c3)ccc2[nH]1 [BIZELESIN] | 27.1 µM (inactive) | 0.183 µM (active) | 0.00288 µM (active) | 22.2 µM (inactive) | 12.5 µM (inactive) | < 0.001 µM (active) | 33.9 µM (inactive) | 13.7 µM (inactive) | 0.139 µM (active) | 1.05 µM (active) | 0.00136 µM (active) | 2.82 µM (inactive) |  | 17.3 µM (inactive) | 4.9 µM (inactive) | 6.35 µM (inactive) | 48.5 µM (inactive) |  | 23.9 µM (inactive)
15 | Cc1c([C@H](C)[C@@H]2NC[C@@H](C)C[C@H]2O)ccc2c1C[C@H]1[C@H]2CC=C2C[C@@H](O)CC[C@@]21C [VERATRAMINE] | 13.7 µM (inactive) | 11.9 µM (inactive) |  | 15.7 µM (inactive) | 10.8 µM (inactive) | 12.9 µM (inactive) | 11.5 µM (inactive) | 16.2 µM (inactive) | 15 µM (inactive) | 23.4 µM (inactive) | 17.8 µM (inactive) | 27.7 µM (inactive) | 24.4 µM (inactive) | 12.6 µM (inactive) | 17 µM (inactive) | 12.4 µM (inactive) | 2.07 µM (inactive) | 14 µM (inactive) | 12.1 µM (inactive)
